Experimental data from patent US5329012A, “Bis(acyloxmethyl)imidazole compounds” (The Research Foundation of State University of New York, priority 1987, dated 1994).
Where two headings read alike, the source gives them in different places.

System: lymphocytic leukemia P-388
Assay: P-388 lymphocytic leukemia test in mice (NCI Protocol 1.200)
Assay type: in vivo, CDF1 female mice
Conditions: for Tox.Day Surv. (survivors/animals tested): day 5; for response vs control in vivo at 12.5 mg/kg / response vs control in vivo at 25 mg/kg / response vs control in vivo at 50 mg/kg / response vs control in vivo at 100 mg/kg / response vs control in vivo at 200 mg/kg / response vs control in vivo at 400 mg/kg: Mus musculus, P388, 120 h, read-out: % T/C (mean survival time)
Experimental: Various bis(acyloxymethyl)imidazole derivatives prepared in accord with Examples I-XVIII and designated Samples A-J, were tested for anti-tumor activity in vivo using the lymphocytic leukemia P-388 test procedure in mice with Samples A and B representing controls. The test system was that employed by the National Cancer Institute (NCI) for the preliminary screening of anti-tumor agents, according to Protocol 1.200 (Cancer Chemo. Reports Part 3, Vol. 3, No. 2, page 9; 1972). In the study ascitic fluid containing 6×10^6 cells was implanted in the peritoneal cavity of CDF1 female mice. Each imidazole was given in a single injection, at four to six different dose levels (5-6 mice/dose level) daily for five (5) days beginning 24 hours after tumor innoculation. The control animals received saline. Test criteria was in accord with NCI protocol as follows: toxicity day evaluations were carried out on day 5 (number of survivors/number of animals tested); % T/C data was calculated through mean survival time [% T/C=(MST treated/MST control)x100, where MST=mean survival time]; BWD refers to the body weight difference (grams) of test animals compared to control animals; KE refers to the log of the tumor cell population at the end of treatment relative to tumor cell population before treatment.
Table I sets out the identification of the compounds corresponding to the samples used in this and further Examples. Table II sets out the results of the P-388 tests.

[1] = 12.5 mg/kg/inj, daily for 5 days
[2] = 100 mg/kg/inj, daily for 5 days
[3] = 200 mg/kg/inj, daily for 5 days
[4] = 400 mg/kg/inj, daily for 5 days

| Compound | BWD (body weight difference vs control) [1] | KE (log tumor cell population end vs before treatment) [1] | BWD (body weight difference vs control) (25 mg/kg/inj, daily for 5 days) | KE (log tumor cell population end vs before treatment) (25 mg/kg/inj, daily for 5 days) | BWD (body weight difference vs control) (50 mg/kg/inj, daily for 5 days) | KE (log tumor cell population end vs before treatment) (50 mg/kg/inj, daily for 5 days) | Tox.Day Surv. (survivors/animals tested) (50 mg/kg/inj, daily for 5 days) | BWD (body weight difference vs control) [2] | KE (log tumor cell population end vs before treatment) [2] | Tox.Day Surv. (survivors/animals tested) [2] | BWD (body weight difference vs control) [3] | KE (log tumor cell population end vs before treatment) [3] | Tox.Day Surv. (survivors/animals tested) [3] | response vs control in vivo at 50 mg/kg | BWD (body weight difference vs control) [4] | KE (log tumor cell population end vs before treatment) [4] | response vs control in vivo at 25 mg/kg (25 mg/kg/inj, daily for 5 days) | response vs control in vivo at 50 mg/kg (50 mg/kg/inj, daily for 5 days) | response vs control in vivo at 100 mg/kg [2] | response vs control in vivo at 200 mg/kg [3] | further results |
| --- | --- | --- | --- | --- | --- | --- | --- | --- | --- | --- | --- | --- | --- | --- | --- | --- | --- | --- | --- | --- | --- |
| CNC(=O)OCc1ncn(-c2ccccc2)c1COC(=O)NC [A, 1-phenyl-4,5-bis(N-methylcarbonyloxymethyl)imidazole, reference compound] | -0.4 g | -1.55 | 0.2 g | -1.61 | -0.8 g | -1.52 | 5/5 | -0.4 g | -1.52 | 5/5 | -1.2 g | -1.55 | 5/5 | 101% | – | – | – | – | – | – | Tox.Day Surv. (survivors/animals tested) [1]: 5/5; Tox.Day Surv. (survivors/animals tested) (25 mg/kg/inj, daily for 5 days): 5/5; response vs control in vivo at 12.5 mg/kg: 99%; response vs control in vivo at 25 mg/kg: 95%; response vs control in vivo at 100 mg/kg: 101%; response vs control in vivo at 200 mg/kg: 99% |
| CC(C)NC(=O)OCc1ncn(-c2ccccc2)c1COC(=O)NC(C)C [B, 1-phenyl-4,5-bis[N-(2-propyl)carbonyloxymethyl]-imidazole, reference compound] | -0.4 g | -1.53 | -0.1 g | -1.53 | 0.8 g | -1.62 | – | 0.6 g | -1.69 | – | 0.2 g | toxic | – | – | -2.3 g | toxic | 103% | 97% | 91% | 90% | response vs control in vivo at 12.5 mg/kg [1]: 103%; response vs control in vivo at 400 mg/kg [4]: 90% |
| CNC(=O)OCc1nc(SC)n(-c2ccccc2)c1COC(=O)NC [C, 1-phenyl-2-methylthio-4,5-bis-(N-methylcarbonyloxymethyl)imidazole] | – | – | – | – | -1.4 g | 0.60 | 5/5 | -1.6 g | 0.17 | 5/5 | -3.0 g | 1.46 | 5/5 | 141% | -5.2 g | toxic | – | – | – | – | Tox.Day Surv. (survivors/animals tested) [4]: 4/5; response vs control in vivo at 100 mg/kg: 133%; response vs control in vivo at 200 mg/kg: 156% |
| CSc1nc(COC(=O)NC(C)C)c(COC(=O)NC(C)C)n1-c1ccccc1 [D, 1-phenyl-2-methylthio-4,5-bis-[N-(2-propyl)carbonyloxymethyl]imidazole] | -0.2 g | -1.42 | 0.6 g | – | 0.3 g | -1.64 | – | -2.0 g | -1.62 | – | -2.8 g | -1.64 | – | – | -4.8 g | -1.52 | 101% | 95% | 97% | 90% | response vs control in vivo at 12.5 mg/kg [1]: 111%; response vs control in vivo at 400 mg/kg [4]: 100% |
| CNC(=O)OCc1nc(SC)n(Cc2ccccc2)c1COC(=O)NC [E, 1-benzyl-2-methylthio-4,5-bis-(N-methylcarbonyloxymethyl)imidazole] | – | – | – | – | 0.9 g | -1.19 | 6/6 | 0.4 g | -1.19 | 6/6 | -0.4 g | -0.44 | 6/6 | 116% | -1.2 g | -0.71 | – | – | – | – | Tox.Day Surv. (survivors/animals tested) [4]: 6/6; response vs control in vivo at 100 mg/kg: 116%; response vs control in vivo at 200 mg/kg: 129%; response vs control in vivo at 400 mg/kg: 127% |
| CSc1nc(COC(=O)NC(C)C)c(COC(=O)NC(C)C)n1Cc1ccccc1 [F, 1-benzyl-2-methylthio-4,5-bis-[N-(2-propyl)carbonyloxymethyl)imidazole] | -0.2 g | -1.64 | -1.5 g | -1.59 | -0.5 g | -0.42 | – | -0.3 g | -0.39 | – | -2.2 g | -0.32 | – | – | -3.2 g | toxic | 101% | 110% | 111% | 116% | response vs control in vivo at 12.5 mg/kg [1]: 98% |
| CNC(=O)OCc1nc(-c2ccccc2)n(C)c1COC(=O)NC [G, 1-methyl-2-phenyl-4,5-bis-(N-methylcarbonyloxymethyl)imidazole] | -0.2 g | -1.56 | 0.0 g | -1.44 | -0.8 g | -1.38 | 5/5 | -1.0 g | -1.31 | 5/5 | -2.2 g | -1.28 | 5/5 | 112% | – | – | – | – | – | – | Tox.Day Surv. (survivors/animals tested) [1]: 5/5; Tox.Day Surv. (survivors/animals tested) (25 mg/kg/inj, daily for 5 days): 5/5; response vs control in vivo at 12.5 mg/kg: 98%; response vs control in vivo at 25 mg/kg: 107%; response vs control in vivo at 100 mg/kg: 116%; response vs control in vivo at 200 mg/kg: 119% |
| CSc1nc(COC(=O)NC(C)C)c(COC(=O)NC(C)C)n1C [I, 1-methyl-2-methylthio-4,5-bis-[N-(2-propyl)carbonyloxymethyl)imidazole] | 2.6 g | -1.40 | 0.4 g | -0.91 | 0.0 g | -0.56 | – | -1.2 g | 1.89 | – | -1.8 g | 4.21 | – | – | -3.4 g | toxic | 125% | 130% | 163% | 184% | response vs control in vivo at 12.5 mg/kg [1]: 113%; response vs control in vivo at 400 mg/kg [4]: 70% |
| COc1nc(COC(=O)NC(C)C)c(COC(=O)NC(C)C)n1C [J, 1-methyl-2-methoxy-4,5-bis-[N-(2-propyl)carbonyloxymethyl)imidazole] | – | – | -0.1 g | -0.60 | -1.0 g | 0.54 | – | -2.1 g | 1.87 | – | -2.6 g | 3.41 | – | – | -4.2 g | 3.88 | 130% | 147% | 166% | 189% | response vs control in vivo at 400 mg/kg [4]: 196% |
